Marks after values point to notes of the source that are not given here.
settings: pH 2.3

Compound	Log P
CCOC(=O)C(C#N)=C(NC(C)c1nccs1)c1cccnc1OCC (racemic) [Compound 148]	2.92

same assay, conditions: pH 2.7

Compound	Log P
CCOC(=O)C(C#N)=C(NC(C)c1ccccn1)c1c(C)nn(C)c1Cl (racemic) [Compound 136]	2.49^[a]
CCOC(=O)C(C#N)=C(NC(c1cc2ccccc2s1)C(F)(F)F)c1c(C)nn(C)c1Cl (racemic) [Compound 137]	4.46^[a]
CCOC(=O)C(C#N)=C(NC(C)c1ccccn1)c1cn(C)nc1C(F)(F)F (racemic) [Compound 140]	2.75^[a]
CCOC(=O)C(C#N)=C(NC(C)c1nccs1)c1sc(C)nc1C(F)(F)F (racemic) [Compound 142]	3.13^[a]
CCOC(=O)C(C#N)=C(NC(C)c1nc(C)c(C)s1)c1sc(C)nc1C(F)(F)F (racemic) [Compound 143]	3.83^[a]
CCOC(=O)C(C#N)=C(NC(C)Cc1cc2ccccc2[nH]1)c1sc(C)nc1C(F)(F)F (racemic) [Compound 145]	3.85^[a]
CCOC(=O)C(C#N)=C(NC(C)c1ccccn1)c1sc(C)nc1C(F)(F)F (racemic) [Compound 146]	3.12^[a]
CCOC(=O)C(C#N)=C(NC(c1cc2ccccc2s1)C(F)(F)F)c1cn(C)nc1C(F)(F)F (racemic) [Compound 147]	4.46^[a]
CCOC(=O)C(C#N)=C(NC(C)c1ccccn1)c1c(C(F)F)nn(C)c1Cl (racemic) [Compound 156]	2.81^[a]
CCOC(=O)C(C#N)=C(NC(C)c1nc(C)c(C)s1)c1ccsc1I (racemic) [Compound 157]	3.75^[a]
CCOC(=O)C(C#N)=C(NC(C)c1nccs1)c1ccsc1I (racemic) [Compound 158]	3.08^[a]
CCOC(=O)C(C#N)=C(NC(C)c1ccccn1)c1sccc1Cl (racemic) [Compound 160]	3.05^[a]
CCOC(=O)C(C#N)=C(NC(c1cc2ccccc2s1)C(F)(F)F)c1sccc1Cl (racemic) [Compound 162]	4.89^[a]
CCOC(=O)C(C#N)=C(NC(C)c1ccccn1)c1ccsc1I (racemic) [Compound 163]	3.03^[a]
CCOC(=O)C(C#N)=C(NC(C)Cc1c[nH]c2ccccc12)c1ccsc1I (racemic) [Compound 164]	3.8^[a]
CCOC(=O)C(C#N)=C(NC(c1cc2ccccc2s1)C(F)(F)F)c1ccsc1I (racemic) [Compound 165]	4.81^[a]
CCOC(=O)C(C#N)=C(NC(C)c1ncc(C)s1)c1sccc1Br (racemic) [Compound 169]	3.46^[a]
CCOC(=O)C(C#N)=C(NC(C)c1nc(C)cs1)c1sccc1C(F)(F)F (racemic) [Compound 174]	3.58^[a]
COC(=O)C(C#N)=C(NC(C)c1sc(C)nc1C)c1sc(C)nc1C(F)(F)F (racemic) [Compound 179]	2.8^[a]
COC(=O)C(C#N)=C(NC(C)c1nc(C)cs1)c1sc(C)nc1C(F)(F)F (racemic) [Compound 180]	3.04^[a]
COC(=O)C(C#N)=C(NC(C)c1ncc(C)s1)c1sc(C)nc1C(F)(F)F (racemic) [Compound 182]	3.09^[a]
CCOC(=O)C(C#N)=C(NC(C)c1sc(C)nc1C)c1cn(C)nc1C(F)F (racemic) [Compound 187]	2.43^[a]
CCOC(=O)C(C#N)=C(NC(C)c1nccs1)c1cc(Cl)sc1Cl (racemic) [Compound 221]	3.65^[a]
CCOC(=O)C(C#N)=C(NC(C)c1ccccn1)c1cc(Cl)sc1Cl (racemic) [Compound 222]	2.41^[a]
CCOC(=O)C(C#N)=C(NC(C)c1nccs1)c1cnc(Cl)cc1Cl (racemic) [Compound 223]	3^[a]

Compound	Log P
CCOC(=O)C(C#N)=C(NC(C)c1nccs1)c1ncccc1Br (racemic) [Compound 224]	2.53^[a]
CCOC(=O)C(C#N)=C(NC(C)c1nccs1)c1ncc(Cl)cc1Cl (racemic) [Compound 225]	3.11^[a]
CCOC(=O)C(C#N)=C(NC(C)c1nccs1)c1cn(C)nc1OC (racemic) [Compound 229]	2.26^[a]
CCOC(=O)C(C#N)=C(NC(C)c1nccs1)c1cccnc1C(F)(F)F (racemic) [Compound 232]	2.9^[a]
CCOC(=O)C(C#N)=C(NC(C)c1ccccn1)c1cccnc1C(F)(F)F (racemic) [Compound 233]	2.88^[a]
CCOC(=O)C(C#N)=C(NC(C)c1nccs1)c1c(C(F)F)nn(C)c1Cl (racemic) [Compound 234]	2.77^[a]
CCOC(=O)C(C#N)=C(NC(C)c1nc(C)c(C)s1)c1c(C(F)F)nn(C)c1Cl (racemic) [Compound 235]	3.37^[a]
CCOC(=O)C(C#N)=C(NC(C)Cc1c[nH]c2ccccc12)c1c(C(F)F)nn(C)c1Cl (racemic) [Compound 237]	3.42^[a]
C=Cc1nn(C)cc1C(NC(C)c1nccs1)=C(C#N)C(=O)OCC (racemic) [Compound 238]	2.3^[a]
CCOC(=O)C(C#N)=C(NC(C)c1nccs1)c1nc(SC)ncc1Br (racemic) [Compound 240]	3.21^[a]
CCOC(=O)C(C#N)=C(NC(C)c1nccs1)c1sc(Cl)nc1Cl (racemic) [Compound 242]	3.27^[a]
CCOC(=O)C(C#N)=C(NC(C)c1cccs1)c1ccsc1Br (racemic) [Compound 250]	3.99^[a]
CCOC(=O)C(C#N)=C(NC(C)c1nccs1)c1cc(Cl)ncc1Cl (racemic) [Compound 252]	3.15^[a]
CCOC(=O)C(C#N)=C(NC(C)c1nc(C(C)C)no1)c1cc(Cl)ncc1Cl (racemic) [Compound 253]	2.2[a]
CCOC(=O)C(C#N)=C(NC(C)c1nc(C(F)(F)F)no1)c1cc(Cl)ncc1Cl (racemic) [Compound 254]	3.83^[a]
CCOC(=O)C(C#N)=C(NC(C)c1nn(C)c(=O)n1C)c1cc(Cl)ncc1Cl (racemic) [Compound 255]	3.76^[a]
CCOC(=O)C(C#N)=C(NC(C)c1nccs1)c1cnccc1C(F)(F)F (racemic) [Compound 256]	2.7^[a]
CCOC(=O)C(C#N)=C(NC(C)c1nccs1)c1cnccc1Br (racemic) [Compound 257]	2.88^[a]
CCOC(=O)C(C#N)=C(NC(C)c1nccs1)c1cnccc1Cl (racemic) [Compound 258]	2.78^[a]
CCOC(=O)C(C#N)=C(NC(C)c1ccccn1)c1ccncc1Cl (racemic) [Compound 260]	2.54^[a]
CCOC(=O)C(C#N)=C(NC(C)c1sc(C)nc1C)c1ccsc1Br (racemic) [Compound 261]	2.9^[a]
CCOC(=O)C(C#N)=C(NC(C)c1ccn(C)n1)c1cccnc1C(F)F (racemic) [Compound 263]	2.18^[a]
CCOC(=O)C(C#N)=C(NC(C)c1ccccn1)c1cccnc1C(F)F (racemic) [Compound 264]	2.46^[a]
CCOC(=O)C(C#N)=C(NC(C)c1nccs1)c1cc(Cl)cc(Cl)n1 (racemic) [Compound 265]	3.31^[a]
CCOC(=O)C(C#N)=C(NC(C)c1nccs1)c1cccnc1C(F)F (racemic) [Compound 266]	2.39^[a]

same assay, conditions: pH 7.5

Compound	Log P
CCOC(=O)C(C#N)=C(NC(C)c1nccs1)c1cccnc1OCC (racemic) [Compound 148]	2.89
CCOC(=O)C(C#N)=C(NC(C)c1nccs1)c1cccnc1C (racemic) [Compound 152]	2.17
CCOC(=O)C(C#N)=C(NC1CCOC1=O)c1cccnc1Cl (racemic) [Compound 231]	1.77
